In BigSolDB 2.1:

CCCCCCCCCCCCCCCCCC(=O)OCCO
Settings	solubility (mole fraction)
in 1,1,1-trichloroethane, 287.65 K	0.0097
in 1,1,1-trichloroethane, 290.45 K	0.0147
in 1,1,1-trichloroethane, 293.65 K	0.0227
in 1,1,1-trichloroethane, 295.75 K	0.0339
in 1,1,1-trichloroethane, 298.55 K	0.0504
in 1,1,1-trichloroethane, 300.95 K	0.0723
in 1,1,1-trichloroethane, 304.25 K	0.108
in 1,1,1-trichloroethane, 307.75 K	0.164
in 1,1,1-trichloroethane, 311.65 K	0.239
in 1,1,1-trichloroethane, 314.45 K	0.348
in 1,1,2-trichlorotrifluoroethane, 290.45 K	0.0013
in 1,1,2-trichlorotrifluoroethane, 295.55 K	0.0029
in 1,1,2-trichlorotrifluoroethane, 303.45 K	0.0077
in 1,1,2-trichlorotrifluoroethane, 303.65 K	0.0087
in 1,1,2-trichlorotrifluoroethane, 306.05 K	0.0124
in 1,1,2-trichlorotrifluoroethane, 308.05 K	0.0192
in 1,1,2-trichlorotrifluoroethane, 309.85 K	0.0307
in 1,1,2-trichlorotrifluoroethane, 311.45 K	0.049
in 1,1,2-trichlorotrifluoroethane, 312.65 K	0.0769
in 1,1,2-trichlorotrifluoroethane, 314.15 K	0.128
in 1,1,2-trichlorotrifluoroethane, 316.75 K	0.276
in cyclohexane, 282.05 K	0.0007
in cyclohexane, 288.35 K	0.0015
in cyclohexane, 294.65 K	0.0033
in cyclohexane, 298.15 K	0.0067
in cyclohexane, 299.15 K	0.0088
in cyclohexane, 300.25 K	0.0128
in cyclohexane, 300.85 K	0.0135
in cyclohexane, 302.25 K	0.0199
in cyclohexane, 303.85 K	0.314
in cyclohexane, 305.45 K	0.0499
in cyclohexane, 307.15 K	0.0774
in cyclohexane, 309.35 K	0.129
in cyclohexane, 312.46 K	0.208
in cyclohexane, 315.56 K	0.303
in ethyl acetate, 297.45 K	0.0118
in ethyl acetate, 298.35 K	0.016
in ethyl acetate, 299.15 K	0.0204
in ethyl acetate, 299.75 K	0.0248
in ethyl acetate, 300.95 K	0.0332
in ethyl acetate, 302.15 K	0.0433
in ethyl acetate, 305.05 K	0.065
in ethyl acetate, 306.05 K	0.0868
in ethyl acetate, 308.75 K	0.125
in ethyl acetate, 312.75 K	0.233
in n-butyl acetate, 294.45 K	0.0094
in n-butyl acetate, 295.35 K	0.0174
in n-butyl acetate, 297.45 K	0.0304
in n-butyl acetate, 298.65 K	0.0507
in n-butyl acetate, 302.65 K	0.0761
in n-butyl acetate, 306.75 K	0.129
in n-butyl acetate, 313.15 K	0.267
in n-hexyl acetate, 293.95 K	0.0267
in n-hexyl acetate, 299.35 K	0.0423
in n-hexyl acetate, 302.35 K	0.0633
in n-hexyl acetate, 305.95 K	0.0919
in n-hexyl acetate, 308.15 K	0.128
in n-hexyl acetate, 309.75 K	0.158
in n-hexyl acetate, 311.65 K	0.202
in n-hexyl acetate, 313.73 K	0.256
in n-hexyl acetate, 317.15 K	0.339
in n-hexyl acetate, 320.05 K	0.464
in n-hexyl acetate, 332.85 K	0.631
in n-pentyl acetate, 294.95 K	0.0324
in n-pentyl acetate, 298.95 K	0.0453
in n-pentyl acetate, 300.85 K	0.168
in n-pentyl acetate, 301.75 K	0.0655
in n-pentyl acetate, 303.75 K	0.0897
in n-pentyl acetate, 305.75 K	0.121
in n-pentyl acetate, 311.95 K	0.232
in n-pentyl acetate, 314.95 K	0.316
in n-pentyl acetate, 318.45 K	0.447
in n-pentyl acetate, 322.85 K	0.657
in n-propyl acetate, 297.75 K	0.0357
in n-propyl acetate, 299.95 K	0.0493
in n-propyl acetate, 302.15 K	0.0655
in n-propyl acetate, 304.35 K	0.0992
in n-propyl acetate, 306.45 K	0.137
in n-propyl acetate, 308.75 K	0.174
in n-propyl acetate, 311.85 K	0.228
in n-propyl acetate, 314.95 K	0.315
in n-propyl acetate, 317.85 K	0.405
in n-propyl acetate, 322.15 K	0.566

CCCCCCCCCCCCCCCCCCCCCC(=O)OCCO
Settings	solubility (mole fraction)
in 1,1,1-trichloroethane, 287.55 K	0.0101
in 1,1,1-trichloroethane, 290.15 K	0.0146
in 1,1,1-trichloroethane, 293.65 K	0.0202
in 1,1,1-trichloroethane, 296.95 K	0.0313
in 1,1,1-trichloroethane, 299.45 K	0.043
in 1,1,1-trichloroethane, 302.35 K	0.0571
in 1,1,1-trichloroethane, 304.35 K	0.0718
in 1,1,1-trichloroethane, 305.75 K	0.0958
in 1,1,1-trichloroethane, 308.95 K	0.127
in 1,1,1-trichloroethane, 311.75 K	0.161
in 1,1,1-trichloroethane, 318.15 K	0.259
in cyclohexane, 295.95 K	0.0024
in cyclohexane, 300.05 K	0.0037
in cyclohexane, 304.75 K	0.0102
in cyclohexane, 307.15 K	0.0204
in cyclohexane, 308.95 K	0.041
in cyclohexane, 311.05 K	0.0766
in cyclohexane, 312.65 K	0.108
in ethanol, 296.35 K	0.0001
in ethanol, 302.05 K	0.0002
in ethanol, 305.35 K	0.0003
in ethanol, 311.65 K	0.0007
in ethanol, 313.05 K	0.0009
in ethanol, 322.45 K	0.0131
in isobutanol, 295.75 K	0.0001
in isobutanol, 300.35 K	0.0004
in isobutanol, 304.45 K	0.0018
in isobutanol, 304.55 K	0.0016
in isobutanol, 308.45 K	0.003
in isobutanol, 311.55 K	0.0082
in isopropanol, 305.15 K	0.0003
in isopropanol, 306.65 K	0.0006
in isopropanol, 313.15 K	0.0008
in isopropanol, 315.65 K	0.0015
in isopropanol, 319.65 K	0.0033
in isopropanol, 321.65 K	0.0058
in isopropanol, 325.65 K	0.0069
in isopropanol, 326.65 K	0.0241
in n-butanol, 295.85 K	0.0004
in n-butanol, 299.75 K	0.0006
in n-butanol, 304.25 K	0.001
in n-butanol, 307.25 K	0.0018
in n-butanol, 309.25 K	0.0036
in n-propanol, 296.55 K	0.0002
in n-propanol, 299.15 K	0.0003
in n-propanol, 302.85 K	0.0007
in n-propanol, 303.15 K	0.0008
in n-propanol, 306.05 K	0.0016
in n-propanol, 308.85 K	0.0033
in tetrachloroethylene, 297.25 K	0.0002
in tetrachloroethylene, 298.45 K	0.0003
in tetrachloroethylene, 301.95 K	0.0005
in tetrachloroethylene, 303.25 K	0.0008
in tetrachloroethylene, 309.75 K	0.0028
in trichloroethylene, 296.25 K	0.0089
in trichloroethylene, 301.35 K	0.0177
in trichloroethylene, 306.45 K	0.0406
in trichloroethylene, 310.85 K	0.0804
in trichloroethylene, 311.25 K	0.252

CCCCCCCCCCCCCCCCCCCC(=O)OCCO
Settings	solubility (mole fraction)
in 1,1,1-trichloroethane, 296.75 K	0.0241
in 1,1,1-trichloroethane, 299.75 K	0.0469
in 1,1,1-trichloroethane, 303.75 K	0.0762
in 1,1,1-trichloroethane, 309.55 K	0.142
in MIBK, 294.65 K	0.0026
in MIBK, 298.05 K	0.0049
in MIBK, 299.25 K	0.008
in MIBK, 302.65 K	0.0176
in MIBK, 307.55 K	0.0486
in MIBK, 311.75 K	0.173
in cyclohexane, 296.35 K	0.003
in cyclohexane, 298.75 K	0.0044
in cyclohexane, 301.55 K	0.008
in cyclohexane, 303.25 K	0.0189
in cyclohexane, 305.65 K	0.0367
in cyclohexane, 307.25 K	0.069
in cyclohexane, 310.55 K	0.122
in ethanol, 311.25 K	0.0006
in ethanol, 314.65 K	0.0012
in ethanol, 319.15 K	0.002
in ethanol, 322.15 K	0.005
in ethanol, 324.15 K	0.0139
in isopropanol, 302.85 K	0.0002
in isopropanol, 304.05 K	0.0005
in isopropanol, 306.35 K	0.0008
in isopropanol, 309.85 K	0.001
in isopropanol, 310.65 K	0.0017
in isopropanol, 310.95 K	0.0026
in isopropanol, 313.15 K	0.0028
in isopropanol, 316.15 K	0.0062
in isopropanol, 318.15 K	0.0134
in isopropanol, 319.85 K	0.082
in isopropanol, 319.95 K	0.193
in n-butanol, 303.75 K	0.0006
in n-butanol, 303.95 K	0.001
in n-butanol, 306.55 K	0.0018
in n-butanol, 306.75 K	0.0019
in n-butanol, 307.95 K	0.0027
in n-butanol, 308.85 K	0.0039
in n-butanol, 310.85 K	0.0059
in n-butanol, 313.75 K	0.0122
in n-butanol, 315.75 K	0.0201
in n-butanol, 317.35 K	0.0783
in n-butanol, 317.45 K	0.151
in n-butyl acetate, 294.75 K	0.0036
in n-butyl acetate, 296.55 K	0.0065
in n-butyl acetate, 297.45 K	0.009
in n-butyl acetate, 299.85 K	0.0127
in n-butyl acetate, 301.05 K	0.0184
in n-butyl acetate, 303.45 K	0.0288
in n-butyl acetate, 307.35 K	0.0655
in n-butyl acetate, 312.35 K	0.147
in n-butyl acetate, 312.85 K	0.172
in n-butyl acetate, 313.35 K	0.185
in trichloroethylene, 297 K	0.0428
in trichloroethylene, 299.25 K	0.0575
in trichloroethylene, 304.25 K	0.104
in trichloroethylene, 307.7 K	0.15
in trichloroethylene, 311.3 K	0.216
